ChEMBL document CHEMBL1151004, “The synthesis and structure activity relationships of enantiomerically pure hydroxylated oxotremorine derivatives” (Bioorg Med Chem Lett, 1992)

Key:
[1] = target: Muscarinic acetylcholine receptor; assay: In vitro ability to displace [3H]quinuclidinyl benzilate [3H]QNB) from rat cortical Muscarinic acetylcholine receptor in competition assay; format: protein assay
[2] = Compound was evaluated for ratio of 3H-QNB, [3H]CD
[3] = target: Muscarinic acetylcholine receptor; assay: In vitro ability to displace 3H-cis-methyltrimethylammoniummethyl-1,3-dioxolane [3H]CD) from rat cortical Muscarinic acetylcholine receptor in competition assay; format: protein assay

Row | Structure (SMILES) | Ki [1] | Ratio [2] | Ki [3]
1 | O=C1C[C@@H](O)CN1CC#CCN1CCCC1 | 3 µM | 38 | 0.078 µM
2 | O=C1CCCN1CC#CCN1CC[C@@H](O)C1 | 1.8 µM | 0.7 | 2.38 µM
3 | O=C1C[C@H](O)CN1CC#CCN1CCCC1 | 7.5 µM | 0.9 | 8.56 µM
4 | C[N+](C)(C)CCOC(N)=O |  | 2000 | 
5 | O=C1[C@@H](O)CCN1CC#CCN1CCCC1 | 1.4 µM | 150 | 0.009 µM
6 | O=C1CCCN1CC#CCN1CCCC1 |  | 120 | 
7 | O=C1CCCN1CC#CCN1CC[C@H](O)C1 | 1.2 µM | 2 | 0.61 µM
8 | O=C1[C@H](O)CCN1CC#CCN1CCCC1 | 2.1 µM | 17 | 0.12 µM
